Read-outs that look alike come from different tables or passages of the source. One block for each compound: values may come before it.
Columns and labels:
MK-3 = MK-3 (Homo sapiens, UniProt Q16644); assay: MK-3 inhibition IC50 (similar method to MK-2, with appropriate modifications); assay type: biochemical; conditions: read-out: MK-3 Avg. IC50
Method: In practice, the selectivity of a cyclic pyrazole MK-2 inhibitor varies depending upon the condition under which the test is performed and on the inhibitors being tested. However, for the purposes of this specification, the selectivity of a cyclic pyrazole MK-2 inhibitor inhibitor can be measured as a ratio of the in vitro or in vivo IC50 value for inhibition of MK-3, divided by the IC50 value for inhibition of MK-2 (IC50 MK-3/IC50 MK-2). […] The MK-2 or MK-3 inhibiting activity of any of the compounds described herein can be determined by any one of several methods that are well known to those having skill in the art of enzyme activity testing. […] A similar method, with appropriate modifications, Can be used to measure MK-3 inhibitory activity. In addition, the efficacy of one of the present MK-2 inhibiting compounds in therapeutic applications can be determined by testing for inhibition of TNFα production in cell culture and in animal model assays.

MAPKAPK2 (MK-2) = MAPKAPK2 (MK-2) (Homo sapiens, UniProt P49137); assay: Determination of MK-2 IC50 (HSP-peptide phosphorylation, anion exchange resin capture assay); assay type: biochemical
Chain of MAPKAPK2 (MK-2) (P49137 whole entry, species assumed): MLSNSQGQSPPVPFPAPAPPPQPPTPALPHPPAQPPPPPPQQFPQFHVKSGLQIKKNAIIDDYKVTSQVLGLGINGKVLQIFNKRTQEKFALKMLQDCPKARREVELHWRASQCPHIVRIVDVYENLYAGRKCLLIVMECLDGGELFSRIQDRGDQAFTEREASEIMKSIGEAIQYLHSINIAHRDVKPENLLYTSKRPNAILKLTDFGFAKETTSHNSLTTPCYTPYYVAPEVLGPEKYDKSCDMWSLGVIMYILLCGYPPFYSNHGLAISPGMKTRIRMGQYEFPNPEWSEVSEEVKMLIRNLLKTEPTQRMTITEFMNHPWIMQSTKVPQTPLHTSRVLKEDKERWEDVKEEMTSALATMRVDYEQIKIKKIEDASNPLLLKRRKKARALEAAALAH
Method: Determination of MK-2 IC50:
Recombinant MAPKAPK2 was phosphorylated at a concentration of 42-78 μM by incubation with 0.23 μM of active p38α in 50 mM HEPES, 0.1 mM EDTA, 10 mM magnesium acetate, and 0.25 mM ATP, pH 7.5 for one hour at 30° C.
The phosphorylation of HSP-peptide ([…]) by MAPKAPK2 was measured using an anion exchange resin capture assay method. The reaction was carried out in 50 mM β-glycerolphosphate, 0.04% BSA, 10 mM magnesium acetate, 2% DMSO and 0.8 mM dithiotheritol, pH 7.5 in the presence of the HSP-peptide with 0.2 μCi [γ^33P]ATP and 0.03 mM ATP. The reaction was initiated by the addition of 15 nM MAPKAPK2 and was allowed to incubate at 30° C. for 30 min. The reaction was terminated and [γ^33P]ATP was removed from solution by the addition of 150 μl of AG 1×8 ion exchange resin in 900 mM sodium formate pH 3.0. A 50 μl aliquot of head volume was removed from the quenched reaction mixture and added to a 96-well plate, 150 μl of Microscint-40 (Packard) was added and the amount of phosphorylated-peptide was determined. Allow the Microscint to sit in the plates for 60 minutes prior to counting.
Compounds are evaluated as potential inhibitors of the MK-2 kinase by measuring their effects on MK-2 phosphorylation of the peptide substrate. Compounds may be screened initially at two concentrations prior to determination of IC50 values. Screening results are expressed as percent inhibition at the concentrations of compound tested. For IC50 value determinations, Compounds are tested at six concentrations in ten-fold serial dilutions with each concentration tested in triplicate. Results are expressed as IC50 values in micromolar. The assay is performed at a final concentration of 2% DMSO.

[1] = Table 2, pyrazolylpyrazole MK-2 inhibitors
[2] = Table 2, pyrazolylpyrazole MK-2 inhibitors, read-out: MK-2 Avg. IC50
[3] = Table 1, phenoxypyrazole MK-2 inhibitors
[4] = Table 1, phenoxypyrazole MK-2 inhibitors, read-out: MK-2 Avg, IC50
[5] = Table 5, other cyclic pyrazole MK-2 inhibiting compounds
[6] = Table 5, other cyclic pyrazole MK-2 inhibiting compounds, read-out: MK-2 Avg. IC50

Chain of MK-3 (Q16644 whole entry, species assumed): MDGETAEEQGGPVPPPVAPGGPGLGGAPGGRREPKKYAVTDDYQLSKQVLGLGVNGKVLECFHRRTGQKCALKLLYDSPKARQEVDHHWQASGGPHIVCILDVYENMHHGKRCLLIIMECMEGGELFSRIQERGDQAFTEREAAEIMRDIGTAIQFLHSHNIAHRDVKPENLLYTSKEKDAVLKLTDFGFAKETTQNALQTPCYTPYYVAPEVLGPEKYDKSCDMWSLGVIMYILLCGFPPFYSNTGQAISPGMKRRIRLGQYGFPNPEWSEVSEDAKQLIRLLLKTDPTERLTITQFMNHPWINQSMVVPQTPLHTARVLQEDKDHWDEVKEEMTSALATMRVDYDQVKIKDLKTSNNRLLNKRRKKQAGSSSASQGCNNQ

SMILES: O=C(O)c1c2c(nn1CCCNCCc1cccs1)-c1cn[nH]c1CC2 [Example 7]
IC50 (MK-3; [1]): 55.2 µM
IC50 (MAPKAPK2 (MK-2); [2]): 3.66 µM

SMILES: O=C1NCCn2nc3c(c21)CCc1cc(O)c(-c2cccc([N+](=O)[O-])c2)cc1-3 [Example 7]
IC50 (MK-3; [3]): > 200 µM
IC50 (MAPKAPK2 (MK-2); [4]): 3 µM

SMILES: O=C1NCCn2nc3c(c21)CCc1cnc(/C=C/c2ccc(F)c(F)c2)cc1-3 [Example 7]
IC50 (MK-3; [5]): > 20 µM
IC50 (MAPKAPK2 (MK-2); [6]): 0.623 µM

SMILES: N#Cc1cccc(-c2cc3c(cn2)CCc2c-3nn(CCCN)c2C(=O)O)c1 [Example 8]
IC50 (MK-3): 0.226 µM
IC50 (MAPKAPK2 (MK-2); read-out: MK-2 Avg. IC50): 0.0302 µM

SMILES: NCCCn1nc2c(c1C(=O)O)CCc1cc(O)c(Br)cc1-2 [Example 8]
IC50 (MK-3; [3]): > 200 µM
IC50 (MAPKAPK2 (MK-2); [4]): 3.75 µM

SMILES: O=C(O)c1c2c(nn1CCCNCCc1ccsc1)-c1cn[nH]c1CC2 [Example 8]
IC50 (MK-3; [1]): 48.5 µM
IC50 (MAPKAPK2 (MK-2); [2]): 7.84 µM

SMILES: O=C1NCCn2nc3c(c21)CCc1cnc(/C=C/c2ccc(F)cc2)cc1-3 [Example 8]
IC50 (MK-3; [5]): > 20 µM
IC50 (MAPKAPK2 (MK-2); [6]): 0.749 µM

SMILES: CCOC(=O)c1c2c(nn1CCCNCCc1ccc(Br)cc1)-c1cn[nH]c1CC2 [Example 9]
IC50 (MK-3; [1]): 68.1 µM
IC50 (MAPKAPK2 (MK-2); [2]): 8.54 µM

SMILES: NCCCn1nc2c(c1C(=O)O)CCc1cc(O)c(-c3ccc([N+](=O)[O-])cc3)cc1-2 [Example 9]
IC50 (MK-3; [3]): 104 µM
IC50 (MAPKAPK2 (MK-2); [4]): 4.91 µM

SMILES: O=C1NC(CO)Cn2nc3c(c21)CCc1cnc(-c2cnc4ccccc4c2)cc1-3 (stereo not shown) [Example 9]
IC50 (MK-3): 5.68 µM
IC50 (MAPKAPK2 (MK-2); read-out: MK-2 Avg. IC50): 0.0313 µM

SMILES: O=C1NCCn2nc3c(c21)CCc1cnc(/C=C/c2ccc(C(F)(F)F)cc2)cc1-3 [Example 9]
IC50 (MK-3; [5]): > 20 µM
IC50 (MAPKAPK2 (MK-2); [6]): 2.26 µM

SMILES: COc1ccc(-c2cc3c(cn2)CCc2c-3nn(CCCN)c2C(=O)O)cc1 [Example 10]
IC50 (MK-3): 0.995 µM
IC50 (MAPKAPK2 (MK-2); read-out: MK-2 Avg. IC50): 0.0371 µM

Results, then the compound that gave them:

IC50 (MK-3; [3]): 168 µM
IC50 (MAPKAPK2 (MK-2); [4]): 5.35 µM
SMILES: N#Cc1cccc(-c2cc3c(cc2O)CCc2c-3nn(CCCN)c2C(=O)O)c1 [Example 10]

IC50 (MK-3; [1]): ≥ 200 µM
IC50 (MAPKAPK2 (MK-2); [2]): 10.1 µM
SMILES: NCCCCn1nc2c(c1C(=O)O)CCc1[nH]ncc1-2 [Example 10]

IC50 (MK-3; [5]): > 20 µM
IC50 (MAPKAPK2 (MK-2); [6]): 2.92 µM
SMILES: O=C1NCCn2nc3c(c21)CCc1cnc(/C=C/c2cccc(Cl)c2)cc1-3 [Example 10]

IC50 (MK-3): 0.453 µM
IC50 (MAPKAPK2 (MK-2); read-out: MK-2 Avg. IC50): 0.0391 µM
SMILES: CS(=O)(=O)c1cccc(-c2cc3c(cn2)CCc2c-3nn(CCCN)c2C(=O)O)c1 [Example 11]

IC50 (MK-3; [1]): ≥ 200 µM
IC50 (MAPKAPK2 (MK-2); [2]): 10.5 µM
SMILES: CSc1n[nH]c2c1-c1nn3c(c1CC2)C(=O)NCCC3 [Example 11]

IC50 (MK-3; [3]): 71.7 µM
IC50 (MAPKAPK2 (MK-2); [4]): 7.53 µM
SMILES: NCCCn1nc2c(c1C(=O)O)CCc1cc(O)c(-c3cccc(C(F)(F)F)c3)cc1-2 [Example 11]

IC50 (MK-3; [5]): > 200 µM
IC50 (MAPKAPK2 (MK-2); [6]): 4.46 µM
SMILES: O=C1NCCn2nc3c(c21)CCc1cnc(/C=C/c2ccccc2F)cc1-3 [Example 11]

IC50 (MK-3; [1]): 55.6 µM
IC50 (MAPKAPK2 (MK-2); [2]): 10.8 µM
SMILES: C=CCSc1n[nH]c2c1-c1nn3c(c1CC2)C(=O)NCCC3 [Example 12]

IC50 (MK-3; [5]): > 200 µM
IC50 (MAPKAPK2 (MK-2); [6]): 4.76 µM
SMILES: COc1ccc(/C=C/c2cc3c(cn2)CCc2c-3nn3c2C(=O)NCC3)cc1 [Example 12]

IC50 (MK-3; [3]): 149 µM
IC50 (MAPKAPK2 (MK-2); [4]): 8.11 µM
SMILES: NCCCn1nc2c(c1C(=O)O)CCc1cc(O)c(CCC(F)(F)F)cc1-2 [Example 12]

IC50 (MK-3): 0.29 µM
IC50 (MAPKAPK2 (MK-2); read-out: MK-2 Avg. IC50): 0.0433 µM
SMILES: NCCCn1nc2c(c1C(=O)O)CCc1cnc(-c3cccc(C(F)(F)F)c3)cc1-2 [Example 12]

IC50 (MK-3; [3]): 121 µM
IC50 (MAPKAPK2 (MK-2); [4]): 10.5 µM
SMILES: NCCCn1nc2c(c1C(=O)O)CCc1cc(O)c(-c3cccc(Cl)c3)cc1-2 [Example 13]

IC50 (MK-3; [1]): 144 µM
IC50 (MAPKAPK2 (MK-2); [2]): 19.6 µM
SMILES: O=C1NCCCn2nc3c(c21)CCc1[nH]ncc1-3 [Example 13]

IC50 (MK-3): 5.34 µM
IC50 (MAPKAPK2 (MK-2); read-out: MK-2 Avg. IC50): 0.0523 µM
SMILES: O=C1NCCn2nc3c(c21)CCc1cnc(-n2ccnc2)cc1-3 [Example 13]

IC50 (MK-3; [3]): > 200 µM
IC50 (MAPKAPK2 (MK-2); [4]): 10.7 µM
SMILES: CC1Cc2c(nn(CCCN)c2C(=O)O)-c2ccc(O)cc21 (stereo not shown) [Example 14]

IC50 (MK-3): 6.46 µM
SMILES: O=C(O)c1c2c(nn1CCCNS(=O)(=O)Cc1ccc(Cl)cc1)-c1cc(-c3cnc4ccccc4c3)ncc1CC2 [Example 54]
